Assay results published in PMC5785997, “2-Phenylquinazolinones as dual-activity tankyrase-kinase inhibitors” (Scientific Reports, 2018).

How the values were obtained:
[1] = system: Wnt/β-catenin signaling (TCF/LEF Reporter HEK293 Cell Line); assay: Wnt signaling TCF/LEF reporter assay in HEK293 cells; format: cell-based, human; conditions: for Wnt (HEK293) inhibition at 1 µM: 1 µM compound; for inhibition at 1 µM: HEK293, 1 µM compound
Procedure: The Wnt assay was performed using a procedure modified from the BPS Bioscience protocol. Details are given in the Supplementary Methods. […]
The Wnt Signaling Pathway TCF/LEF Reporter HEK293 Cell Line (BPS Bioscience, catalog […]
Reporter HEK293 cells were grown at 37 °C with 5% CO2 using Dulbecco's Modified Eagle's Medium (DMEM, Sigma), supplemented with 10% of fetal bovine serum (Lonza), 1% non-essential amino acid (Sigma), 1X of penicillin and streptomycin (Sigma), and 400 µg/ml of Geneticin (Roche). Wnt-3a and L cells (ATCC) were cultured in Dulbecco’s modified Eagle’s medium supplemented with 10% fetal bovine serum, penicillin and streptomycin at 37 °C in a 5%
CO2. Wnt3a and control conditioned medium preparation has been described previously1. The Wnt assay was performed using a procedure modified from the BPS Bioscience protocol. 30,000 HEK293 cells/well in 40 µl of serum-free DMEM were plated on 96-well plate (white wells, clear […]
bottom, PerkinElmer). 10 µl of 50 mM LiCl in serum-free DMEM with 5x concentration of DMSO or tankyrase inhibitors was added. After 16 hours of incubation, 25 µl of Wnt3a or control conditioned medium supplemented with DMSO or tankyrase inhibitors was added on cells and cells were incubated for additional 24 hours. After the second incubation, the 96-well plates were balanced in room temperature for 30 minutes. Wnt3a induced luciferase activity was determined using ONE-Glo Luciferase Assay System (Promega) according to manufacturer’s protocol. […]
Difference Fourier method deriving the starting phases from 3U9H. The refinement of the structures was done with REFMAC5.5,6 Final manual building, analysis and visualization of the structures were made with Coot7 and PyMOL (www.pymol.org). All chemical structures were drawn with Marvin (Marvin 5.7.0 2011, ChemAxon, http://www.chemaxon.com). The docking studies were performed using GOLD software.8

[2] = biological target: p38α (Homo sapiens, UniProt Q16539); assay: Kinase functional assay (mobility shift), p38α; format: biochemical; conditions: read-out: p38α (% Inhib.); for inhibition at 1 µM: 1 µM compound, Table S3; for inhibition at 10 µM: 10 µM compound, Table S4
[3] = biological target: T1, human CK2α-1 (Homo sapiens, UniProt P68400); assay: ADP-Glo kinase assay, CK2; format: biochemical; conditions: read-out: CK2 (% Inhib.); for inhibition at 1 µM: 1 µM compound, Table S3; for inhibition at 10 µM: 10 µM compound, Table S4
T1 construct: purchased Promega V4,482
Procedure: The kinase functional assays were performed using a combination of kinase and 1.5 μM peptide substrate in the presence of ATP. The reaction mixture was analyzed on the Caliper LabChip 3,000 (Caliper, Hopkinton, MA) by the electrophoretic mobility shift of the fluorescent substrate and phosphorylated product. For the inhibition of human CK2α-1, the experiments were carried out with ADP-Glo kinase Assay Kit (Promega V9,101). Assays are described in detail in the Supplementary Methods and Table S6. […]
Dose-response curves were generated to determine the concentration required to inhibit 50% of kinase activity (IC50). Staurosporine (Invitrogen BP2,451) was included as a positive control of each enzymatic assay. The profiling of the kinases was done at 1 and at 10 μM of the compound.
For the inhibition of human CK2α-1, the experiments were carried out in a white 384-microplate low flange (Corning 3,572) with ADP-Glo kinase Assay Kit (Promega V9101) and CK2α-1 Kinase Enzyme System (Promega V4,482). The test compounds and standard staurosporine (Invitrogen BP2451), 25 ng/well CK2α-1 kinase and 50 µM ATP were added in a final volume of 10 µl/well using reaction buffer supplied by kit as assay buffer. The reaction mixture was incubated in gentle shaking for 60 minutes at room temperature. After the incubation 10 µl of ADP-Glo reagent was added and incubated in gentle shaking for 40 minutes at room temperature. Finally 20 µl of Kinase Detection Reagent was added and the plate was incubated on a shaker for 30 minutes at room […]
temperature. […]

[4] = biological target: ARTD2/PARP2 (Homo sapiens, UniProt Q9UGN5); assay: ARTD profiling, ARTD2
[5] = biological target: T2, ARTD4/PARP4 (Homo sapiens, UniProt Q9UKK3); assay: ARTD profiling, ARTD4
T2 sequence (Q9UKK3 369-573 limits assumed): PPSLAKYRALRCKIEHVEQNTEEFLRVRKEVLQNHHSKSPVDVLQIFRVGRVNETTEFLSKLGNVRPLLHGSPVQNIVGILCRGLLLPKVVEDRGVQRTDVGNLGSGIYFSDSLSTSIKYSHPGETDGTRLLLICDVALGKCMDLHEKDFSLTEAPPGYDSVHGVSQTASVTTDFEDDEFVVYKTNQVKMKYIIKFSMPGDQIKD

[6] = Homo sapiens, TCF/LEF reporter HEK293

T1 sequence (P68400 whole entry): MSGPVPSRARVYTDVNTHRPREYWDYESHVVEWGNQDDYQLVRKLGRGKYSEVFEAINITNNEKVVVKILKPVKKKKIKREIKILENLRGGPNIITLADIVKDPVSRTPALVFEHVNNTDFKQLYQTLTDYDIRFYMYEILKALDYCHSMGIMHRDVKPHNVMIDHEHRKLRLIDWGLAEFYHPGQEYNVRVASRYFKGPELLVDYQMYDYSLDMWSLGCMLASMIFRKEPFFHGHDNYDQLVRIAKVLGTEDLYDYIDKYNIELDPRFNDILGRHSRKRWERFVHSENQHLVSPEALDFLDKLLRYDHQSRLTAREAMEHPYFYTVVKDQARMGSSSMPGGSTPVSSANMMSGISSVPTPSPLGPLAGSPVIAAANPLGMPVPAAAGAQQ
Chain of p38α (Q16539 whole entry): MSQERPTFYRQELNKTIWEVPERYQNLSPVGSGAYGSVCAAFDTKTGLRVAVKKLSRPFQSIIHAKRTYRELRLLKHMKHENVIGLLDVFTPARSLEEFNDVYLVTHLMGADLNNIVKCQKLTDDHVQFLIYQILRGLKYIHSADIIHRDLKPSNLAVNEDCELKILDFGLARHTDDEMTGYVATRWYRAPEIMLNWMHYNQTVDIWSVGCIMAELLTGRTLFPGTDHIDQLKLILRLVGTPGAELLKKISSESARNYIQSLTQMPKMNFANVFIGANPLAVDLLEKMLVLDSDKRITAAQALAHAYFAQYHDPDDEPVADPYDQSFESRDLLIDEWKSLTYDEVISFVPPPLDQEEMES
Chain of ARTD2/PARP2 (Q9UGN5 whole entry): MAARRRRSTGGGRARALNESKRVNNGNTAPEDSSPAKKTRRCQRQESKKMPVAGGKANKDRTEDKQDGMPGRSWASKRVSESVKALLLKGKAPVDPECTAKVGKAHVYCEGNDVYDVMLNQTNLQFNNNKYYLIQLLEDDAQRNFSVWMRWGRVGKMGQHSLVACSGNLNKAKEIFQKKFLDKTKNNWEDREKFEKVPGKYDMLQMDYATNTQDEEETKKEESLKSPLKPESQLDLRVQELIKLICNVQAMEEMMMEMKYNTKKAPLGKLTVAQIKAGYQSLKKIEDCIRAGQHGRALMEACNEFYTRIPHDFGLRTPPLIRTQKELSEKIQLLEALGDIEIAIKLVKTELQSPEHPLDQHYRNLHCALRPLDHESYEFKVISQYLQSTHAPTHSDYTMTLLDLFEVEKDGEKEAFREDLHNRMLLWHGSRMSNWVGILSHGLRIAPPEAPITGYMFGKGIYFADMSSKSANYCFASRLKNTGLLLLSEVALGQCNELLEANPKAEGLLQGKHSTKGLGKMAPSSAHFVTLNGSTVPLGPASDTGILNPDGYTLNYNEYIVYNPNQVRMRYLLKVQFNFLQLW

| inhibition at 1 µM [2] | inhibition at 10 µM [2] | inhibition at 1 µM [3] | inhibition at 10 µM [3] | IC50 [4] | IC50 [5] | SMILES | Wnt (HEK293) inhibition at 1 µM ([1]; TCF/LEF reporter HEK293) | inhibition at 1 µM [1, 6] | IC50 [1, 6] | Effect on Wnt/β-catenin signaling at lower concentrations ([1]; concentrations below 1 µM) |
| --- | --- | --- | --- | --- | --- | --- | --- | --- | --- | --- |
| 3 ± 1% | 3 ± 3% | 1 ± 1% | 1 ± 1% | 8.6 µM | 12 µM | O=c1[nH]c(-c2ccc(N3CCCCC3)cc2)nc2ccccc12 [Compound 30] | > 50% | 61% | 0.57 µM | – |
| 1 ± 1% | 20 ± 2% | 2 ± 1% | 2 ± 1% | 24 µM | 5.5 µM | CCN(CC)c1ccc(-c2nc3ccccc3c(=O)[nH]2)cc1 [Compound 32] | 63% | > 50% | – | activated Wnt/β-catening signaling |
